US6908927B2, “Pyridopyranoazepine derivatives, their preparation and their therapeutic application” (Sanofi-Synthelabo, priority 1999, dated 2005)
Where a name gives a salt, the structure may show the parent alone.

CCC1c2ncccc2OC2CCN3CCC21C3 (racemic) (as salt: HBr)
melting point: 170 °C (dec.)
